Literature values as cited in US20230139888A1, “MOISTURIZING PEEL CREAM FOR ENHANCING SKIN” (L'OREAL, priority 2021, published 2023).

Details: acute oral toxicity, mutagenicity, skin irritation, skin sensitization, phototoxicity

For `CC(c1ccccc1)c1ccc(O)cc1O` (stereo not shown) [Phenylethyl resorcinol], the “adverse effects in basic toxicological tests” value is given as “has not shown adverse effects”.
